Laboratory results as given in US6355677B1, “Adrenoleukodystrophy treatments and drug screening” (The Johns Hopkins University, priority 1998, dated 2002).
“And” between values parts separate entries of the source, which are not always exact repeats. Equal entries are not always repeated. “Also recorded” adds a separate entry of the source.

Key:
[1] = tested on: human primary fibroblasts; experiment: Phytanic acid oxidation ([2,3-3H]-phytanic acid); type: cell-based; conditions: 5 mM, 10 days
Description: Phytanic acid oxidation occurs exclusively in the peroxisomal matrix and can therefore serve as a marker for peroxisomal function. […] SCP2 is a 15-kDa protein located exclusively in the peroxisomal matrix.
(§1) For VLCFA measurements, total lipids were extracted, converted to methyl esters, purified by TLC and subjected to capillary GC analysis as described. Duplicate assays were set up independently and were assayed on different days. C24:0 β-oxidation activity of human and mouse fibroblasts and human lymphoblastoid cells was determined by measuring their capacity to degrade [1-^14C]-C24:0 fatty acid (American Radiolabeled Chemicals, St. Louis, Mo.) to water-soluble products as described. Phytanic acid oxidation was measured as described. Cells were incubated with [2,3-^3H]-phytanic acid for 24 hours, and the release of ^3H-H2O to the aqueous medium was determined (activity in pmol/hr per mg protein).

[2] = tested on: mouse primary fibroblasts; experiment: Toxicity in cultured cells; type: cell-based; conditions: data not shown
Description: (§2) The genotypes of the X-ALD patients included midssense, nonsense, ftame shift and deletion mutations and all of the main clinical phenotypes.

[3] = tested on: human primary fibroblasts; experiment: Toxicity in cultured cells; type: cell-based; conditions: data not shown
Description: as §2

[4] = tested on: X-ALD human primary fibroblasts; experiment: C24:0 β-oxidation ([1-14C]-C24:0 degradation); type: cell-based; conditions: 5 mM 4PBA for 6 days
Description: (§3) Cell lines derived from X-ALD patients and X-ALD mice were grown in MEM (fibroblasts) or RPMI (lymphoblastoid cells) supplemented with fetal calf serum (10%), penicillin (100 U/ml), streptomycin (100 U/ml) and glutamine (2 mM). […] Cells in the second flask were grown without drug for the same length of time and served as controls. The media were changed every 3-4 days.
as §1

[5] = tested on: X-ALD human lymphoblastoid cells; experiment: C24:0 β-oxidation ([1-14C]-C24:0 degradation); type: cell-based; conditions: 5 mM 4PBA for 6 days
Description: as §3, §1

[6] = tested on: X-ALD mouse primary fibroblasts; experiment: C24:0 β-oxidation ([1-14C]-C24:0 degradation); type: cell-based; conditions: 5 mM 4PBA for 6 days
Description: as §3, §1

X-ALD mice = experiment: In vivo efficacy: VLCFA levels in brain and adrenal glands after dietary treatment; parameters: species or system mouse
Description: To measure the in vivo efficacy of 4-PBA, we supplemented mouse chow and water with 4-PBA.
In vivo delivery of 4-PBA to X-ALD mice. 4-PBA was delivered to X-ALD mice in their regular chow and water. 4-PBA chow was prepared by B'OServ (Holton Industries, Frenchtown, N.J.). […] Brains and adrenal glands from normal LD and X-ALD/4-PBA mice were collected for VLCFA analysis as described.

Pex11α = experiment: Semi-quantitative RT-PCR, mouse primary fibroblasts; type: cell-based; conditions: normal or X-ALD mouse fibroblasts, 10 day exposure to 5 mM; data not shown
Description: (§4) Total RNA from tissue culture cells (10^6-10^7 cells/sample) was isolated using TRizol Reagent™ (Life Technologies), treated with DNase I (100-200 units in 40 mM HC, 10mM NaC, 6 mM MgCl2, pH 7.3), incubated at 37° C. for 30 min, extracted with pheno/chloroform, and precipitated with isopropanol. cDNA was generated using MMLV reverse transcriptase (RT) (Life Technologies). PCR was done in the linear range of amplification (determined for each primerpair-cDNA combination). For each cDNA sample, a ‘cocktail’ was prepared, containing PCR buffer (Promega), 200 µM of each DNTP, 1.5 mM MgCl2, 250 ng cDNA, 0.25 U of Taq polymerase (Promega) and […]. The ‘cocktail’ was divided into separate tubes containing cDNA specific primers.
(§5) The PCR primers used are listed below. In the parentheses, h indicates human and m, mouse; this is followed by the gene name, product size and annealing temperature. For primer sequences, F is forward and R is reverse. […]

PPARα = experiment: as above; type: cell-based; conditions: mouse X-ALD fibroblasts, 5 mM, 2 days
Description: as §4, §5

PMP70 = experiment: as above; type: cell-based; conditions: X-ALD or normal fibroblasts, 5 mM, 2 days
Description: (§6) Semi-quantitative RT-PCR was done on the mRNA isolated from these cells (FIG. 1). […] In addition, the expression of acyl-CoA oxidase (AOX), the rate-limiting enzyme in VLCFA β-oxidation, was not affected. Although previous studies have reported that ALDR mRNA was not detectable in fibroblasts by either northern or RT-PCR analyses, those RT-PCR studies used about 66 ng of CDNA; we used about 250 ng of cDNA.
as §4
(§7) The PCR primers used are listed below. In the parentheses, h indicates human and m, mouse; this is followed by the gene name, product size and annealing temperature. For primer sequences, F is forward and R is reverse. (hALD, 249, 64° C.) F: 5′-[…]-3′, R: 5′-[…]-3′; (mALD, 526, 59° C.) F: 5′-[…]-3′, R: 5′-[…]-3′; (hPMP70, 405, 60° C.) F: 5′-[…]-3′, R: 5′-[…]-3′; (mPMP70, 405, 60° C.) F: 5′-TTr[…]-3′, R: 5′-[…]-3′; (hALDR, 312, 56° C.) F: 5-[…]-3′, R: 5′-[…]-3′; (mALDR, 711, 57° C.) F: 5′-[…]-3′, R: 5′-[…]-3′; (hPMP69, 319, 60° C.) F: 5′-[…]-3′, R: 5-[…]-3′; (hAOX, 405, 60° C.) F: 5′-[…]-3′, R: 5′[…]-3′; (mAOX, 247, 60° C.) F: 5′-[…]r[…]-3′, R: 5′-[…]-3′; (hPPARα, 347, 60° C.) F: 5-[…]r[…]rCC-3′, R: 5′-[…]-3′; (mFPPARa, 268, 60° C.) F: 5′-GATTr[…]-TGAGG-3, R: 5′-[…]-3′; (hPex11α 658, 55° C.) F: 5-[…]-3′, R: 5′-[…]-3′; (mpex11α, 720, 55° C.) F: 5′-[…]r[…]-3′, R: 5′-[…]-3′; (β-Actin, 460, 62° C.) F:5′-[…]-3′, R: 5′-[…]-3, (glyceraldehyde 3-phosphate dehydrogenase (GAPDH), 528, 62° C.) F: 5′-[…]-3, R: 5′-[…]-3′. β-Actin and GAPDH primers were used for both human and mouse analyses.

ALDR mRNA = experiment: as above; type: cell-based; conditions: normal and X-ALD fibroblasts, 5 mM, 2 days, relative to GAPDH
Description: as §6, §4, §7

ALDP = experiment: as above; type: cell-based; conditions: normal fibroblasts, 5 mM, 2 days
Description: as §6, §4, §7

acyl-CoA oxidase (AOX) = experiment: as above; type: cell-based; conditions: 5 mM, 2 days
Description: as §6, §4, §7

[7] = dietary 4-PBA (about 70 mg per day), 6 weeks

In the case of O=C(O)CCCc1ccccc1 [4-PBA, 4-Phenyl butyrate], the “Increase in phytanic acid oxidation” value ([1]; X-ALD human primary fibroblasts) is reported as “twofold”, the “Increase in phytanic acid oxidation” value ([1]; normal human primary fibroblasts) is reported as “twofold” and the Toxic concentration [2] is reported as “exceeding 7.5 mM”. For the same compound, the Toxic concentration [3] was “exceeding 7.5 mM”, the “C24:0 β-oxidation, Increase (treated over untreated)” value (“C24:0 β-oxidation, Increase” for short) [4] was “twofold to threefold” and the “C24:0 β-oxidation, Treated (mean specific activity)” value (from here on “C24:0 β-oxidation, Treated”) [4] was 0.39 ± 0.07 nmol/hr per mg protein. For the same compound, the “C24:0 β-oxidation, Increase” value [5] was “twofold to threefold”, the “C24:0 β-oxidation, Treated” value [5] was 0.18 ± 0.03 nmol/hr per mg protein and the “C24:0 β-oxidation, Increase” value [6] was “twofold to threefold”. The “C24:0 β-oxidation, Treated” value [6] was 0.28 ± 0.03 nmol/hr per mg protein, the “Correction of brain C24:0” value (X-ALD mice; [7]) was “complete correction; also recorded: complete normalization” and the “Correction of brain C26:0” value (X-ALD mice; [7]) was 78% and 80%. For the same compound, the “Adrenal gland VLCFA (C24:0 and C26:0) levels” value (X-ALD mice; dietary 4-PBA, 4 weeks) was “substantial reduction”, the “Brain VLCFA (C24:0 and C26:0) levels” value (X-ALD mice; dietary 4-PBA, 4 weeks) was “substantial reduction” and the Pex11α transcripts (Pex11α) was “undetectable”. For the same compound, the PPARα expression (PPARα) was “increased”, the PMP70 expression level (PMP70) was “little, if any, effect” and the “ALDR mRNA level” value (ALDR mRNA) was “substantially increased; also recorded: substantial increase”. For the same compound, the ALDP expression level (ALDP) was “little, if any, effect” and the AOX expression (acyl-CoA oxidase (AOX)) was “unchanged; also recorded: not affected”.
